Non-standard residues stand in square brackets, D forms with d. Residues, ends and D or L forms follow the SMILES beside them. Tic = O=C(O)[C@@H]1Cc2ccccc2CN1; Orn = NCCC[C@H](N)C(=O)O; Aze = O=C(O)[C@@H]1CCN1; Aib = CC(C)(N)C(=O)O
These compounds were tested against T1, human CCR10 (Homo sapiens, UniProt P46092) (assay: Calcium flux antagonism assay with human CCL27). Conditions: 300-19 cells with human CCR10, human CCL27, read-out: IC50% (μM), CCR10 receptor.
T1 construct: expressed in transfected cells; host or cells: mouse pre-B cell line 300-19
T1 sequence (P46092 1-362): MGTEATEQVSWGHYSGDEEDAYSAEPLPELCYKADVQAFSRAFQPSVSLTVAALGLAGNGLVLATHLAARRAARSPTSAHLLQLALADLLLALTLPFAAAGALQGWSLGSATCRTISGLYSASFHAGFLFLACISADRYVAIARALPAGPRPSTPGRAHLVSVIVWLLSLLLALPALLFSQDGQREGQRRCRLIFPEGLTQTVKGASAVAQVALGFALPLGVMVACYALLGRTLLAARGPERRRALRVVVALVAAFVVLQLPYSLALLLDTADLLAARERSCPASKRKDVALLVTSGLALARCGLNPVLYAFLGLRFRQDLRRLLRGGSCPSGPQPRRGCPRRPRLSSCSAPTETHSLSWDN
Format: cell-based
Procedure: (§1) The mouse pre-B cell line 300-19 was stably transfected with the cDNA encoding the human UTR2 receptor (GenBank Acc#NM_018949), and expression was confirmed with a positive calcium signal in response to human urotensin (Sigma Aldrich). Increases in intracellular calcium were monitored using a Flexstation 384 (Molecular Devices, Sunnyvale, Calif.). The cells were batch loaded with the Calcium 3 Assay kit (Molecular Devices) in assay buffer (Hanks Balanced salt solution, HBSS, 20 mM HEPES, pH 7.4, 0.1% BSA) for 1 h at room temperature and labeled cells were dispensed into either black 96 well or 384 well assay plates (Greiner). Calcium mobilization induced by urotensin or compounds was measured in the Flexstation 384 (excitation, […]) for 70 seconds. Agonist activity was determined by direct addition of ligand or peptides, while antagonists were identified by pre-incubation of compounds with cells prior to urotensin addition. A dose response curve (compound concentration versus % maximum response for urotensin) was determined for each active agonist and antagonist and was fitted to a four parameter logistic equation using SoftmaxPro 4.6 (Molecular Devices), from which EC50% and IC50% values were calculated.
Peptides for CCR10 (Marchese et. al. 1994, Homey et. al.) and CXCR3 (Loetscher et. al. 1998, Marchese et. al. 1995) antagonism were assayed in a mouse pre-B cell line 300-19 stably transfected with either human CCR10 or CXCR3 (Marchese et. al. 1995). Antagonism at each receptor was measured with a calcium flux assay in these cells as described above for UTR2 assays using human CCL27 and human CXCL10 (Cole et. al.) for CCR10 and CXCR3 respectively.
Selectivity was measured using the calcium flux assay on a panel of human chemokine receptor bearing cell lines (CCR1, CCR2, CCR3, CCR4, CCR5, CCR6, CCR7, CCR8, CCR9, CCR10, CXCR1, CXCR2, CXCR2, CXCR4, CXCR6 and CXCCR1) using the same method as above

IC50 [µM]	Structure (SMILES)
0.31	CC(C)[C@H]1NC(=O)[C@H](Cc2c[nH]c3ccccc23)NC(=O)[C@@H]2Cc3ccccc3CN2C(=O)[C@H]2CCCN2C(=O)[C@H](CCCN)NC(=O)[C@H](Cc2c[nH]c3ccccc23)NC1=O [Example 17] (cyclo(W[dV]W[Orn][dP][Tic]))
0.29	CC(C)[C@H]1NC(=O)[C@H](Cc2c[nH]c3ccccc23)NC(=O)[C@@H]2Cc3ccccc3CN2C(=O)[C@H]2CCCN2C(=O)[C@H](CCCCN)NC(=O)[C@H](Cc2c[nH]c3ccccc23)NC1=O [Example 18] (cyclo(W[dV]WK[dP][Tic]))

The compounds below were run against T2, human UTR2 receptor (Homo sapiens, UniProt Q9UKP6) (assay: Calcium mobilization assay, antagonist activity at urotensin receptor). Conditions: pre-incubation before urotensin, 300-19 cells with human UTR2, read-out: IC50% (μM) ± SD, Urotensin receptor.
T2 construct: expressed in transfected cells; host or cells: mouse pre-B cell line 300-19
T2 sequence (Q9UKP6 1-389): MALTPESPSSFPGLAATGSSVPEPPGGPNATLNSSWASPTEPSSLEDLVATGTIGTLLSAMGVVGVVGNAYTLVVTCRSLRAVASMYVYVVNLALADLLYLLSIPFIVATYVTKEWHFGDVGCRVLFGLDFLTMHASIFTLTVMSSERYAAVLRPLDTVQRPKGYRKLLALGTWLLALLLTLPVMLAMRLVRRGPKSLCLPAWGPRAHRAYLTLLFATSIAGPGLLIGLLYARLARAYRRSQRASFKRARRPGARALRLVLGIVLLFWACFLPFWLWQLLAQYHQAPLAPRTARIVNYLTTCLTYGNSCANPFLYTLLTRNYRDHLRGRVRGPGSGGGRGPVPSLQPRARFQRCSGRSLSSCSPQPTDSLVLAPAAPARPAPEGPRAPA
Format: cell-based
Procedure: as §1

IC50 [µM]	Structure (SMILES)
6.2 ± 1.5	CC[C@H](C)[C@@H]1NC(=O)[C@@H]2Cc3ccccc3CN2C(=O)[C@H]2CCCN2C(=O)[C@H]([C@@H](C)CC)NC(=O)C(C)(C)NC(=O)[C@@H](CCCNC(=N)N)NC1=O [Example 19] (cyclo(I[dR][Aib]I[dP][Tic]))

These compounds were tested against T2, human UTR2 receptor (assay: Calcium mobilization assay, agonist activity at urotensin receptor). Conditions: mouse pre-B 300-19 cells transfected with human UTR2, read-out: EC50% (nM) ± SD, Urotensin receptor.
Format: cell-based
Procedure: as §1

Structure (SMILES)	EC50 [nM]
COc1ccc2c3c1CNC(=O)[C@H](Cc1c[nH]cn1)NC(=O)[C@H](Cc1ccc(O)cc1)NC(=O)[C@H](CCCCN)NC(=O)[C@H](Cc1c[nH]c4ccccc14)NC(=O)Cc1c(OC)ccc(c1O3)C2(C)C [Example 12]	218
COc1ccc2c3c1CNC(=O)[C@H](Cc1ccc(O)cc1)NC(=O)[C@H](CCCCN)NC(=O)[C@H](Cc1c[nH]c4ccccc14)NC(=O)[C@H](Cc1ccccc1)NC(=O)Cc1c(OC)ccc(c1O3)C2(C)C [Example 8]	18 ± 3
NCCCC[C@@H]1NC(=O)[C@H](Cc2c[nH]c3ccccc23)NC(=O)[C@H](CCC(N)=O)NC(=O)[C@@H]2Cc3ccccc3CN2C(=O)[C@H]2CCCN2C(=O)[C@H](Cc2ccc(O)cc2)NC1=O [Example 3] (cyclo(QWKY[dP][Tic]))	82 ± 13
CC[C@H](C)[C@@H]1NC(=O)Cc2c(OC)ccc3c2Oc2c(ccc(OC)c2CNC(=O)[C@H](Cc2ccc(O)cc2)NC(=O)[C@H](CCCCN)NC(=O)[C@H](Cc2c[nH]c4ccccc24)NC1=O)C3(C)C [Example 11]	192 ± 14
CC[C@H](C)[C@@H]1NC(=O)[C@@H]2Cc3ccccc3CN2C(=O)[C@H]2CCCN2C(=O)[C@H](Cc2ccc(O)cc2)NC(=O)[C@H](CCCCN)NC(=O)[C@H](Cc2c[nH]c3ccccc23)NC1=O [Example 2] (cyclo(IWKY[dP][Tic]))	68 ± 32
C[C@@H](O)[C@@H]1NC(=O)[C@@H]2CCN2C(=O)[C@H]2CCCN2C(=O)[C@H](Cc2ccc(O)cc2)NC(=O)[C@H](CCCCN)NC(=O)[C@H](Cc2c[nH]c3ccccc23)NC1=O [Example 7] (cyclo(TWKY[dP][Aze]))	286 ± 66
NCCCC[C@@H]1NC(=O)[C@H](Cc2c[nH]c3ccccc23)NC(=O)[C@H](Cc2ccccc2)NC(=O)[C@@H]2CCN2C(=O)[C@H]2CCCN2C(=O)[C@H](Cc2ccc(O)cc2)NC1=O [Example 4] (cyclo(FWKY[dP][Aze]))	20 ± 5
CC[C@H](C)[C@@H]1NC(=O)[C@@H]2CCN2C(=O)[C@H]2CCCN2C(=O)[C@H](Cc2ccc(O)cc2)NC(=O)[C@H](CCCCN)NC(=O)[C@H](Cc2c[nH]c3ccccc23)NC1=O [Example 5] (cyclo(IWKY[dP][Aze]))	45 ± 22
COc1ccc2c3c1CNC(=O)[C@H](Cc1ccc(O)cc1)NC(=O)[C@H](CCCCN)NC(=O)[C@H](Cc1c[nH]c4ccccc14)NC(=O)[C@H]([C@@H](C)O)NC(=O)Cc1c(OC)ccc(c1O3)C2(C)C [Example 9]	160 ± 81
NCCCC[C@@H]1NC(=O)[C@H](Cc2c[nH]c3ccccc23)NC(=O)[C@H](CCC(N)=O)NC(=O)[C@@H]2CCN2C(=O)[C@H]2CCCN2C(=O)[C@H](Cc2ccc(O)cc2)NC1=O [Example 6] (cyclo(QWKY[dP][Aze]))	134 ± 61
COc1ccc2c3c1CNC(=O)[C@H](Cc1ccc(O)cc1)NC(=O)[C@H](CCCCN)NC(=O)[C@H](Cc1c[nH]c4ccccc14)NC(=O)[C@H](CCC(N)=O)NC(=O)Cc1c(OC)ccc(c1O3)C2(C)C [Example 10]	170 ± 40
NCCCC[C@@H]1NC(=O)[C@H](Cc2c[nH]c3ccccc23)NC(=O)[C@H](Cc2ccccc2)NC(=O)[C@@H]2Cc3ccccc3CN2C(=O)[C@H]2CCCN2C(=O)[C@H](Cc2ccc(O)cc2)NC1=O [Example 1] (cyclo(FWKY[dP][Tic]))	54 ± 12

Now from value to compound:

EC50 [nM]	Structure (SMILES)
189 ± 13	CC[C@H](C)[C@@H]1NC(=O)C[C@@H]2NC(=O)[C@@H]3C[C@@H](CN3C2=O)NC(=O)[C@H](Cc2ccc(O)cc2)NC(=O)[C@H](CCCCN)NC(=O)[C@H](Cc2c[nH]c3ccccc23)NC1=O [Example 14]
274 ± 5	COc1ccc2c3c1CNC(=O)[C@H](Cc1ccc(O)cc1)NC(=O)[C@H](CCCCN)NC(=O)[C@H](Cc1c[nH]c4ccccc14)NC(=O)[C@H](CCC(=O)O)NC(=O)Cc1c(OC)ccc(c1O3)C2(C)C [Example 13]

Source: patent US10000535B2, “Template-fixed peptidomimetics” (POLYPHOR LTD., priority 2007, dated 2018)
